Experiments:
[1] = tested on: Jurkat; experiment: confluency relative to DMSO, 18 h (ratio); higher = more viable
Method in brief: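 Jurkat or primary CD4+/CD8+ T cells (naive, or activated 48 h with CD3/CD28 Dynabeads) were treated 18 h with compound at 1 nM–10 µM (log10 steps) at 37 °C, 5% CO2. Then 100 µl of suspension went into 96-well plates with IncuCyte Cytotox Dye and alamarBlue. Confluency came from IncuCyte phase-contrast imaging (×10, five images per well, hourly over 3 h) using the Basic Analyzer. Values are normalised to mean DMSO controls.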

[2] = tested on: Jurkat; experiment: metabolic activity relative to DMSO, 18 h (ratio); higher = more viable
Method in brief: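 Metabolic activity was expressed relative to the mean of vehicle control wells. Jurkat cells or primary CD4+/CD8+ T cells, either naive or activated for 48 h with CD3/CD28 Dynabeads, were exposed to compound from 1 nM to 10 µM in log10 steps for 18 h at 37 °C, 5% CO2. Aliquots of 100 µl of suspension were moved to 96-well plates containing alamarBlue (10% v/v final), and fluorescence was read after 3.5 h on a FluoStar Omega at excitation 544 nm and emission 584 nm.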

[3] = tested on: Jurkat; experiment: cytotoxicity relative to DMSO, 18 h (ratio); higher = less cell death (drugs called cytotoxic fall below 1)
Method in brief: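 Cytotoxicity was measured by IncuCyte fluorescence imaging after confluency correction and normalisation to mean control values. Cells (Jurkat, or primary CD4+/CD8+ T cells that were naive or pre-activated 48 h with CD3/CD28 Dynabeads) received compound at 1 nM–10 µM in log10 steps for 18 h at 37 °C, 5% CO2. Imaging used ×10 magnification, five images per well, taken hourly over 3 h in 96-well plates with 250 nM final IncuCyte Cytotox Dye in 100 µl of suspension.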

Compound	confluency ([1]; 1 nM)	confluency ([1]; 10 nM)	confluency ([1]; 100 nM)	confluency ([1]; 1000 nM)	confluency ([1]; 10000 nM)	metabolic activity ([2]; 1 nM)	metabolic activity ([2]; 10 nM)	metabolic activity ([2]; 100 nM)	metabolic activity ([2]; 1000 nM)	metabolic activity ([2]; 10000 nM)	cytotoxicity ([3]; 1 nM)	cytotoxicity ([3]; 10 nM)	cytotoxicity ([3]; 100 nM)	cytotoxicity ([3]; 1000 nM)	cytotoxicity ([3]; 10000 nM)
O=C1NC(=O)C(=Cc2ccc3nccc(-c4ccncc4)c3c2)S1	0.989	0.988	0.968	0.812	1.01	0.992	0.956	0.964	0.723	0.426	0.944	0.984	0.956	0.762	0.804
O=C(O)c1ccc(CN2CCC(CNC3CC3c3ccccc3)CC2)cc1 (stereo not given)	0.954	0.956	0.996	0.987	0.993	1.09	1.06	1.09	1.08	1.02	1	1.04	1.1	1.04	1.03
CC(C)CC(=O)Nc1n[nH]c2c1CN(C(=O)C1CCN(C)CC1)C2(C)C	0.887	0.876	0.978	0.97	0.591	1.17	1.2	1.26	1.24	0.438	0.914	0.908	1.05	1.07	0.406
Cc1c(Cn2c(C)nc3c(C(=O)O)cc(N4CCOCC4)cc32)cccc1C(F)(F)F	0.923	0.973	1.05	1.03	0.998	0.862	0.891	1	1.25	1.08	0.881	0.947	1.05	1.14	1.01
COc1ccc(-c2cc3c(C)nc(N)nc3n(C3CCC(OCCO)CC3)c2=O)cn1 (stereo not given)	1.01	0.951	0.927	0.741	0.9	1.08	1.01	0.734	0.562	0.402	1.02	0.94	0.882	0.666	0.721
COc1ccc(Cn2ccc3ccc(C(=O)NO)cc32)cc1	1.01	1.01	1	1.01	1	1.03	0.992	1.02	1.01	1.02	0.955	0.926	0.954	1.04	0.938
COCCN1CCN(Cc2ccc(-c3n[nH]c4c3C(=O)c3c(NC(=O)NN5CCOCC5)cccc3-4)cc2)CC1.Cl.Cl	0.976	0.788	0.898	0.951	0.909	1.05	0.968	0.223	0.221	0.198	0.969	0.715	0.581	0.639	0.62
Cc1sc2c(c1C)C(c1ccc(Cl)cc1)=NC(CC(=O)OC(C)(C)C)c1nnc(C)n1-2 (single isomer, unassigned; (+)) [(+)-JQ-1]	1.02	0.962	1.02	1.01	1.02	1.05	0.989	1.13	1.1	0.987	1.09	0.985	1.22	1.07	0.995
Nc1ncn(C2OC(CO)C(O)C2O)c(=O)n1 (stereo not given) [5-Azacytidine]	0.777	0.792	0.976	0.919	0.961	1.05	1.03	1.03	0.994	0.344	0.896	0.89	1.12	1	1.12
O=c1[nH]cc(F)c(=O)[nH]1 [5-Fluorouracil]	1	0.981	0.992	0.978	0.996	1.03	0.913	0.967	0.999	0.971	0.997	0.931	0.995	0.946	0.985
O=C(NO)c1cnc(NC2(c3ccccc3)CC2)nc1 [ACY738]	1.01	0.994	1.03	0.995	0.999	0.936	0.962	1.1	0.862	0.713	0.969	0.95	1.15	1.05	0.982
Cc1csc(-c2nnc(Nc3ccc(Oc4ncccc4-c4ccnc(N)n4)cc3)c3ccccc23)c1 [AMG-900]	0.926	0.91	0.92	0.874	0.878	0.99	0.973	1.02	0.871	0.865	0.919	0.897	0.856	0.848	0.823
CC(C)C(C(=O)Nc1ccc(C(=O)NO)cc1)c1ccccc1 (stereo not given) [AR-42]	0.972	0.984	0.941	0.97	0.97	0.942	1.02	0.934	0.577	0.695	0.947	1.02	0.892	0.807	0.811
Cc1ncc(-c2ccnc(Nc3ccc(S(C)(=O)=O)cc3)n2)n1C(C)C [AZD-5438]	1.06	1.12	0.972	0.991	0.944	1.08	1.14	1.14	1.08	0.124	0.927	0.91	0.951	1.03	1.02
Cc1cc(C(C)Nc2ccccc2C(=O)O)c2nc(N3CCOCC3)cc(=O)n2c1 (stereo not given) [AZD-6482]	1.03	1.03	0.994	0.984	0.928	1.16	1.14	1.03	1.03	0.923	1.19	1.22	1.14	1.06	0.946

Source: the supplement of paper PMC11919725
